From patent publication US20250228879A1, “METHOD AND COMPOSITION FOR CONTROLLING ACNE USING RHAMNOLIPIDS” (Stepan Company, priority 2022, published 2025)
Marks after values point to notes of the source that are not given here.

Legend:
C. acnes = assay: Labskin efficacy of rhamnolipids compared to salicylic acid and benzoyl peroxide (Example 5); type: cell-based, Cutibacterium acnes
Description: A study was conducted to compare the efficacy of the rhamnolipid mixture of the present technology with salicylic acid and benzoyl peroxide, two common over-the-counter anti-acne actives. The samples containing salicylic acid and benzoyl peroxide were additionally mixed using a tip sonicator to ensure complete dissolving or adequeate distribution of the active.
The skin analog substrate (Labskin) was prepared as described in Example 4. The C. acnes microorganism was cultured as described in Example 4, and each Labskin unit was inoculated as described in Example 4. The Labskin units were incubated at 37° C. for 24 hours, and after 24 hours, were treated with 11 microliters of control (dPBS), vehicle, or test item. All Labskin units were then incubated at 37° C. for 24 hours, after which biopsy samples of 8 mm in diameter were aseptically removed from the center of each Labskin unit and viable microbial numbers were assayed by recovery on appropriate culture medium.
Technical replicate counts obtained from selective solid media were averaged and used to calculate the colony forming units per square cm (CFU cm^−2). The enumeration of C. acnes for the control, vehicle, and test samples is shown graphically in FIG. 4.
The Log10 difference between the dPBS control and the vehicle and test samples was calculated as described in Example 4, and the Logio difference results are shown graphically in FIG. 5.

[1] = water at 25° C.; cited from earlier work
[2] = system: Cutibacterium acnes (ATCC #6919); assay: Time-dependency comparative testing, flow cytometry viability (Example 6); type: cell-based
Description: A study was conducted to compare the time-dependent efficacy of a rhamnolipid mixture of the present technology (Example 6 Composition), a commercially available rhamnolipid product (Comparative Composition), and salicylic acid against Cutibacterium acnes (ATCC #6919). […] The Comparative Composition comprised a mixture of rhamnolipids having a mono-rhamnolipid: di-rhamnolipid ratio of about 4:96 Test samples were prepared by diluting the rhamnolipids and the salicylic acid in sterile water. […] The concentrations of salicylic acid actives in the test samples were 0.03 wt %, 0.1 wt %, and 0.3 wt %. Prior to initiation of the study, samples were sufficiently pre-reduced to remove oxygen by using an indirect atmospheric sequestering of oxygen using hydrogen reaction over palladium catalyst. […] The sample aliquots were neutralized by dilution in an oxygen-reducing buffer containing the flow cytometry dyes, SYTO 9 and Propidium Iodide. Samples were analyzed using flow cytometry where cells were characterized by morphology and viability in comparison to a deionized water control.

C. acnes ATCC 6919 = assay: Efficacy against C. acnes, aqueous test samples (Example 1); type: cell-based, Cutibacterium acnes; details: Tested Conc. 0.3%, pH 2.7
Description: A study was conducted to determine the antimicrobial activity of a rhamnolipid mixture of the present technology alone against C. acnes, available from American Type Culture Collection (ATCC), Manassas, VA as ATCC 6919. Test samples were prepared by mixing 6.0% by weight of the rhamnolipid mixture into an aqueous base. Two samples were prepared, one sample using a rhamnolipid mixture processed by a non-solvent purification process, and the other sample using a rhamnolipid mixture processed by a solvent extraction process. The rhamnolipid mixtures in each sample comprise a weight ratio of mono-rhamnolipids to di-rhamnolipids in the range of 43:57 to 45:55.

[3] = 15 min Exposure, Tested Conc. 0.03%
[4] = 15 min Exposure, Tested Conc. 0.10%
[5] = 15 min Exposure, Tested Conc. 0.30%
[6] = 60 min Exposure, Tested Conc. 0.03%
[7] = 60 min Exposure, Tested Conc. 0.10%
[8] = 60 min Exposure, Tested Conc. 0.30%

Question: Which “Log10 difference of C. acnes vs dPBS control (FIG. 5)” value (C. acnes; benzoyl peroxide alone (5% and 2.5% w/w) in 20% w/w Tween in dPBS) does the source give for O=C(OOC(=O)c1ccccc1)c1ccccc1 [benzoyl peroxide] here?
Answer: Its value is “significant decrease in the recovered population of C. acnes”.

Question: Which results are given for O=C(O)c1ccccc1O [Salicylic acid in DI Water, salicylic acid]?
Answer: solubility limit in water [1]: 0.3% *; Enumeration of C. acnes compared with dPBS control (FIG. 4) (C. acnes; 0.5% w/w in 20% w/w Tween in dPBS, Labskin, 24 hours): slight decrease in the average amount of C. acnes; Log10 difference of C. acnes vs dPBS control (FIG. 5) (C. acnes; 0.5% w/w salicylic acid in 20% w/w Tween in dPBS): moderate decrease in C. acnes recovered; Log10 difference of C. acnes vs dPBS control (FIG. 5) (C. acnes; 2% w/w salicylic acid in 20% w/w Tween in dPBS): noticeable decrease in the recovered population of C. acnes; Log10 cells/mL Reduction [2, 3]: 0.10 Log10 cells/mL; Percent Reduction [2, 3]: 20.6%; Log10 cells/mL Reduction [2, 4]: 0.10 Log10 cells/mL; Percent Reduction [2, 4]: 20.6%; Log10 cells/mL Reduction [2, 5]: 0.57 Log10 cells/mL; Percent Reduction [2, 5]: 73.2%; Log10 cells/mL Reduction [2, 6]: 0.35 Log10 cells/mL; Percent Reduction [2, 6]: 55.2%; Log10 cells/mL Reduction [2, 7]: 1.14 Log10 cells/mL; Percent Reduction [2, 7]: 92.8%; Log10 cells/mL Reduction [2, 8]: >2.30 Log10 cells/mL; Percent Reduction [2, 8]: >99.5%; Reduction % (C. acnes ATCC 6919; 1 h Exposure): >99.997%; Reduction Log10 CFU/mL (C. acnes ATCC 6919; 1 h Exposure): >4.6 Log10 CFU/mL; Reduction % (C. acnes ATCC 6919; 24 h Exposure): >99.995%; Reduction Log10 CFU/mL (C. acnes ATCC 6919; 24 h Exposure): >4.3 Log10 CFU/mL
